Experimental data as given in US9695155B2, “Herbicidal substituted pyrimidinyloxy benzene compounds” (E. I. DU PONT DE NEMOURS AND COMPANY, priority 2013, dated 2017).

What was measured:
Heteranthera limosa = test: Test B flooded paddy test; assay type: in vivo; settings: Flood, 250 g ai/ha; 0 to 100 scale where 0 is no effect and 100 is complete control
In short: (§1)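 Seedlings are raised to two leaves, flooded to a depth of 3 cm and dosed by adding the compound to the floodwater. Water level is kept constant, and plants are scored visually versus controls 13–15 days later (0 = no effect, 100 = complete control).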

galium = test: Test A postemergence; assay type: in vivo, Galium aparine; settings: 0 to 100 scale, 0 no effect, 100 complete control
In short: (§2)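 Pre- and postemergence greenhouse screen. Soil: loam + sand. Spray carrier: solvent mixture, non-phytotoxic, with surfactant. Post timing at 1–2 leaves, height 2–10 cm. Readout: visual injury on a 0–100 scale roughly 10 days after application, untreated plants as reference.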

barnyardgrass [1] = test: Test A preemergence; assay type: in vivo, Echinochloa crus-galli
In short: as §2

Italian ryegrass [2] = test: Test A preemergence; assay type: in vivo, Lolium multiflorum
In short: as §2

giant foxtail [3] = test: Test A preemergence; assay type: in vivo, Setaria faberii
In short: as §2

giant foxtail [4] = test: Test A postemergence; assay type: in vivo, Setaria faberii; settings: 0 to 100 scale, 0 no effect, 100 complete control
In short: as §2

kochia [5] = test: Test A preemergence; assay type: in vivo, Kochia scoparia
In short: as §2

pigweed [6] = test: Test A postemergence; assay type: in vivo, Amaranthus retroflexus; settings: 0 to 100 scale, 0 no effect, 100 complete control
In short: as §2

barnyardgrass [7] = test: Test A postemergence; assay type: in vivo, Echinochloa crus-galli; settings: 0 to 100 scale, 0 no effect, 100 complete control
In short: as §2

Italian ryegrass [8] = test: Test A postemergence; assay type: in vivo, Lolium multiflorum; settings: 0 to 100 scale, 0 no effect, 100 complete control
In short: as §2

rice = test: Test B flooded paddy test; assay type: in vivo, Oryza sativa; settings: Flood, 250 g ai/ha; 0 to 100 scale where 0 is no effect and 100 is complete control
In short: as §1

ragweed [9] = test: Test A postemergence; assay type: in vivo, Ambrosia elatior; settings: 0 to 100 scale, 0 no effect, 100 complete control
In short: as §2

blackgrass = test: Test A postemergence; assay type: in vivo, Alopecurus myosuroides; settings: 0 to 100 scale, 0 no effect, 100 complete control
In short: as §2

corn = test: Test A postemergence; assay type: in vivo, Zea mays; settings: 0 to 100 scale, 0 no effect, 100 complete control
In short: as §2

barnyardgrass [10] = test: Test B flooded paddy test; assay type: in vivo, Echinochloa crus-galli; settings: Flood, 250 g ai/ha; 0 to 100 scale where 0 is no effect and 100 is complete control
In short: as §1

wheat = test: Test A postemergence; assay type: in vivo, Triticum aestivum; settings: 0 to 100 scale, 0 no effect, 100 complete control
In short: as §2

ragweed [11] = test: Test A preemergence; assay type: in vivo, Ambrosia elatior
In short: as §2

pigweed [12] = test: Test A preemergence; assay type: in vivo, Amaranthus retroflexus
In short: as §2

sedge, umbrella = test: Test B flooded paddy test; assay type: in vivo, Cyperus difformis; settings: Flood, 250 g ai/ha; 0 to 100 scale where 0 is no effect and 100 is complete control
In short: as §1

kochia [13] = test: Test A postemergence; assay type: in vivo, Kochia scoparia; settings: 0 to 100 scale, 0 no effect, 100 complete control
In short: as §2

[14] = 1000 g ai/ha, 0 to 100 scale, 0 no effect, 100 complete control, approx. 10 days
[15] = 31 g ai/ha, 0 to 100 scale where 0 is no effect and 100 is complete control, visual, approximately 10 days

In the case of Fc1cccc(Oc2ncc(Cl)cn2)c1-n1ccnn1 [Compound 159], the “Plant response rating, Ducksalad” value (Heteranthera limosa) is reported as 0, the “Plant response rating, Galium” value (galium; 1000 g ai/ha) is reported as 90 and the “Barnyardgrass plant response rating” value (barnyardgrass [1]; [14]) is reported as 100. For the same compound, the “Ryegrass, Italian plant response rating” value (Italian ryegrass [2]; [14]) was 30, the “Foxtail, Giant plant response rating” value (giant foxtail [3]; [14]) was 100 and the “Plant response rating, Foxtail, Giant” value (giant foxtail [4]; 1000 g ai/ha) was 90. The “Kochia plant response rating” value (kochia [5]; [14]) was 100, the “Plant response rating, Pigweed” value (pigweed [6]; 1000 g ai/ha) was 100 and the “Plant response rating, Barnyardgrass” value (barnyardgrass [7]; 1000 g ai/ha) was 70. The “Plant response rating, Ryegrass, Italian” value (Italian ryegrass [8]; 1000 g ai/ha) was 30, the “Plant response rating, Rice” value (rice) was 0 and the “Plant response rating, Ragweed” value (ragweed [9]; 1000 g ai/ha) was 80. The “Plant response rating, Blackgrass” value (blackgrass; 1000 g ai/ha) was 50, the “Plant response rating, Corn” value (corn; 1000 g ai/ha) was 40 and the “Plant response rating, Barnyardgrass” value (barnyardgrass [10]) was 0. For the same compound, the “Plant response rating, Wheat” value (wheat; 1000 g ai/ha) was 30, the “Ragweed plant response rating” value (ragweed [11]; [14]) was 100 and the “Pigweed plant response rating” value (pigweed [12]; [14]) was 100. For the same compound, the “Plant response rating, Sedge, Umbrella” value (sedge, umbrella) was 0 and the “Plant response rating, Kochia” value (kochia [13]; 1000 g ai/ha) was 100.

For Fc1cnc(Oc2ccccc2-n2cc(OCC(F)(F)F)cn2)nc1 [Compound 241], the “Plant response rating, Ducksalad” value (Heteranthera limosa) was 40, the “Plant response rating, Galium” value (galium; 31 g ai/ha) was 40 and the “Plant response rating, Galium” value (galium; 125 g ai/ha) was 60. For the same compound, the “Plant response rating, Barnyardgrass” value (barnyardgrass [1]; [15]) was 10, the “Barnyardgrass plant response rating (0 to 100 scale, 0 is no effect, 100 is complete control)” value (barnyardgrass [1]; 125 g ai/ha) was 60 and the “Plant response rating, Ryegrass, Italian” value (Italian ryegrass [2]; [15]) was 0. The “Ryegrass, Italian plant response rating (0 to 100 scale)” value (Italian ryegrass [2]; 125 g ai/ha) was 0, the “Plant response rating, Foxtail, Giant” value (giant foxtail [3]; [15]) was 50 and the “Foxtail, Giant plant response rating (0 to 100 scale)” value (giant foxtail [3]; 125 g ai/ha) was 100. The “Plant response rating, Foxtail, Giant” value (giant foxtail [4]; 31 g ai/ha) was 0, the “Plant response rating, Foxtail, Giant” value (giant foxtail [4]; 125 g ai/ha) was 20 and the “Plant response rating, Kochia” value (kochia [5]; [15]) was 50. The “Kochia plant response rating (0 to 100 scale)” value (kochia [5]; 125 g ai/ha) was 100, the “Plant response rating, Pigweed” value (pigweed [6]; 31 g ai/ha) was 40 and the “Plant response rating, Pigweed” value (pigweed [6]; 125 g ai/ha) was 80. The “Plant response rating, Barnyardgrass” value (barnyardgrass [7]; 31 g ai/ha) was 0, the “Plant response rating, Barnyardgrass” value (barnyardgrass [7]; 125 g ai/ha) was 10 and the “Plant response rating, Ryegrass, Italian” value (Italian ryegrass [8]; 31 g ai/ha) was 0. The “Plant response rating, Ryegrass, Italian” value (Italian ryegrass [8]; 125 g ai/ha) was 0, the “Plant response rating, Rice” value (rice) was 0 and the “Plant response rating, Ragweed” value (ragweed [9]; 31 g ai/ha) was 10. The “Plant response rating, Ragweed” value (ragweed [9]; 125 g ai/ha) was 30, the “Plant response rating, Blackgrass” value (blackgrass; 31 g ai/ha) was 0 and the “Plant response rating, Blackgrass” value (blackgrass; 125 g ai/ha) was 20. The “Plant response rating, Corn” value (corn; 31 g ai/ha) was 0, the “Plant response rating, Corn” value (corn; 125 g ai/ha) was 10 and the “Plant response rating, Barnyardgrass” value (barnyardgrass [10]) was 0. The “Plant response rating, Wheat” value (wheat; 31 g ai/ha) was 0, the “Plant response rating, Wheat” value (wheat; 125 g ai/ha) was 10 and the “Plant response rating, Ragweed” value (ragweed [11]; [15]) was 0. For the same compound, the “Ragweed plant response rating (0 to 100 scale)” value (ragweed [11]; 125 g ai/ha) was 40, the “Plant response rating, Pigweed” value (pigweed [12]; [15]) was 80 and the “Pigweed plant response rating (0 to 100 scale)” value (pigweed [12]; 125 g ai/ha) was 100. For the same compound, the “Plant response rating, Sedge, Umbrella” value (sedge, umbrella) was 0, the “Plant response rating, Kochia” value (kochia [13]; 31 g ai/ha) was 50 and the “Plant response rating, Kochia” value (kochia [13]; 125 g ai/ha) was 90.
